Test results: patent publication US20180289655A1, “Methods and Compositions for the Intravenous Administration of Fumarates for the Treatment of Neurological Diseases” (Biogen MA Inc., priority 2015, published 2018)
“Also recorded” adds a separate entry of the source. Where a name gives a salt, the structure may show the parent alone.

Columns and labels:
blood cell populations = test: Complete blood count (CBC) with differential after IV dosing; format: in vivo, C57BL/6 mice
Description: Whole blood samples (250 μL) were collected in EDTA tubes at indicated time points after dosing, and were maintained at 4° C. until analysis for CBC with differential at Charles River Laboratories (analyzed within 24-36 hours from time of collection).
Statistical analyses on blood cell fractions were not completed due to the overall variability and low number of replicates for the samples in this pilot study.
A CBC with differential panel was performed at 10 minutes post-last dose via facial vein bleeding, and at 2 hours after the last dose, pharmacodynamic Nrf2 transcriptional responses were analyzed in tissues from the same animals. Histopathology was also performed on regions of the tail in a pilot toxicology study.

SOD1-G93A mice = test: SOD1-G93A mouse model of ALS, oral DMF; format: in vivo; conditions: DMF p.o. 100 mg/kg daily
Description: Motor performance was assessed by rotarod at day 85, 100, and 115. Health was monitored by clinical observation and body weight. […] Body weight was modestly impacted by DMF.
Thirty-two female SOD1-G93A mice were purchased from Jackson Laboratories (Line 2726). All mice were transgene positive. Sixteen mice were used per dosing group. Dosing began at day 50-55. All procedures were conducted in accordance with the NIH Guide for the Care and Use of Laboratory Animals and were approved by the Biogen Idec Institutional Animal Care and Use Committee (IACUC Protocol No. 0408-2011).
Mice were dosed once daily either with vehicle or DMF. Dosing volume was 10 ml/kg, introduced by oral gavage.
Disease onset and progression in the SOD1-G93A was monitored by three approaches. All approaches were done in a blinded fashion. Body weight was recorded on a daily basis. Mice were also inspected on a daily basis for disease onset, as defined by leg tremor or decreased hind limb flexion upon tail lift. Mice were also assessed on an accelerating rotarod test at weeks 12, 14, and 16. For this test, mice were first acclimated to a rod rotating at 2 rpm for 300 seconds once a day for two days. For the actual test, mice are placed on rod accelerating from 2 to 40 rpm over 90 seconds. Upon reaching full speed, the test continues for an additional 30 seconds. Mice were tested three times per day and the longest time recorded. Mice that were unable to remain on the rod for 20 seconds were excluded from further testing.
Mice were determined to have reached endpoint criteria for humane euthanasia when then when they failure to right from either side within 15 seconds.
For rotarod and body weight, values were compared by two-way ANOVA. Body weight was further evaluated by break point analysis. Break point analysis identifies the inflection point of a curve, by completing a series of linear regression fits. The intersection of the curve fits for the ascending and descending slopes with the minimal residual error is defined as the break point. For each mouse, the breakpoint was determined. The two groups were then compared by Student's T-test. Differences in onset and survival were tested for using the Mantel-Cox log rank test. A further test with the Cox proportional hazards test incorporating littermate status was completed.

[1] = test system: malonate-induced striatal lesion in rats; test: Malonate-induced striatal lesion volume (cytochrome oxidase histochemistry), oral DMF; format: in vivo, Sprague-Dawley rats
Description: Two separate experiments were conducted and are reported here.
Rats were anesthetized under Bupivacaine (2 mg/kg), Brevital (50 mg/kg, i.p.) and isoflurane anesthesia, placed in a stereotaxic frame and prepared for intrastriatal injection. A single injection of malonate was injected at a single site in the left striatum corresponding to stereotaxic coordinates at AP: […] from bregma; Lateral: 2.8 mm from midline; DV: −5.5 mm from surface of the skull at bregma. Malonate (in saline) was injected at a dose of 2.0 μmols in 2.0 μl over 4 minutes using a syringe pump. The injection needle was left in place for an additional 1.0 min following the infusion and was withdrawn slowly to minimize reflux of the infusate up the needle tract. Rats were kept warm on a heating pad until waking from anesthesia (Green and Greenamyre, 1995).
Three (Experiment 1) or four (Experiment 2) days after the malonate injection and 30 min after the last dose, all animals were sacrificed by CO2, and their brains were quickly removed and stored in 20% sucrose in PBS for at least 1 hour, then transfer them to 30% sucrose in PBS overnight. On next day, all brains were embedded in OCT and stored in −80° C. The first experiment included three treatment groups: vehicle, 30 mg/kg and 100 mg/kg, and the second experiment included four treatment groups: vehicle, 50 mg/kg, 75 mg/kg and 100 mg/kg.
Incubation medium consisted of 200 mg cytochrome C and 200 mg of 3, 3′-Diaminobenzidine tetrahydrochloride (DAB) in 500 ml of 0.1 M phosphate buffer, pH 7.4. Slides were incubated for 90 minutes at 37° C. and wash twice with PBS (2-5 min.), then removed to 4% neutral, buffered, paraformaldehyde for 20 minutes. Sections were rinsed twice with PBS (2-5 min.), then twice with distilled water (2-5 min.), dehydrated, cleared in xylene, and coverslipped.
The lesion area on each section was quantified using Open-Lab Image Analysis System. Sections were taken throughout the entire striatum and a total of twenty 25 μm sections were analyzed for each rat. Area measurements were summed and multiplied by intersectional distance (200 μm) to determine the lesion volume for each subject.
Data for lesion volume was analyzed by one way analysis of variance (ANOVA) followed by a Tukey's test to assess differences between the treatment and vehicle groups.

[2] = Chemical stability of DMF nano suspension (HPLC); format: physicochemical; conditions: Day 1, room temperature
Description: 5.0 ml of pH5.0 phosphate buffer (Fisher Scientific, Lot No. 100498) were added to the tube. Further, ZrO2 beads (˜10 ml) were also added to the tube. The sample was vortexed in a Fisher Scientific multi-tube vortexer at 2500 rpm for 60 min and the particle size was checked via optical microscopic image. An additional 5.0 ml of pH5 phosphate buffer was added and the sample was further milled overnight. The temperature of the sample was ˜60° C. due to the overnight milling. The particle size was determined via microscopic image and Mastersizer 2000.
The suspension was stored at room temperature and samples were taken at day 1 and day 7. The stability of the samples was examined using HPLC method for chemical stability, PSD and microscopic image (data not provided) for physical stability.

[3] = Stability of DMF 20% Captisol solutions at ambient temperature (HPLC); format: physicochemical; conditions: for DMF area %: 20% Captisol
Text: Samples stored at ambient temperature were pulled at predetermined time points (0, 2 and 7 days), and analyzed by HPLC. [table]

[4] = Study 3, DMF IV 30 mg/kg once daily x5
[5] = Study 3, DMF IV 30 mg/kg once daily x5, vs vehicle

Q: With `COC(=O)/C=C/C(=O)OC` [DMF, dimethyl fumarate] as the compound, how does the “Reduction in white blood cell counts (neutrophils, lymphocytes, monocytes, eosinophils, basophils)” value (blood cell populations; Study 2, single IV dose DMF 30 mg/kg or MMF 27.08 mg/kg, 2-hour time point) read?
A: The value was “did not specifically coincide with DMF or MMF treatment”.

Q: And the “Effect on red blood cells, hemoglobin, hematocrit, mean corpuscular volume, platelets” value (blood cell populations; Study 2, single IV dose DMF 30 mg/kg or MMF 27.08 mg/kg, 10 minutes, 2 and 6 hours)?
A: The value was “no effect on red blood cells, hemoglobin, hematocrit, mean corpuscular volume, or platelets”.

Q: And the “Effect on red blood cells, hemoglobin, hematocrit, mean corpuscular volume, platelets” value (blood cell populations; [4])?
A: The value was “no effects on red blood cells, hemoglobin, hematocrit, mean corpuscular volume, or platelets”.

Q: And the White blood cells (blood cell populations; [4])?
A: Its White blood cells is “general reduction in white blood cells”.

Q: And the Decrease in lymphocytes (blood cell populations; [5])?
A: Its Decrease in lymphocytes is 38%.

Q: What about the Decrease in monocytes (blood cell populations; [5]) of the same compound?
A: The Decrease in monocytes was 60%.

Q: And the “Disease onset as assessed by limb splay” value (SOD1-G93A mice)?
A: Its value is “did not significantly change onset”.

Q: What about the Survival (SOD1-G93A mice) of the same compound?
A: The Survival was “did not prolong survival”.

Q: What about the “Transition from weight gain to weight loss (breakpoint analysis)” value (SOD1-G93A mice; p<0.05) of the same compound?
A: Its value is “significantly delayed”.

Q: What about the Rotarod performance (SOD1-G93A mice; weeks 12, 14, 16) of the same compound?
A: Its Rotarod performance is “did not alter rotarod performance”.

Q: And the “Reduction of malonate induced lesion volume” value ([1]; Experiment 1, DMF 100 mg/kg oral daily, n=7 per group)?
A: The value was 55%.

Q: And the “Reduction of malonate-induced lesion volume” value ([1]; Experiment 2, DMF 75 mg/kg oral daily)?
A: Its value is 44%.

Q: And the “Reduction of malonate-induced lesion volume” value ([1]; Experiment 2, DMF 100 mg/kg oral daily)?
A: Its value is 61%.

Q: And the “Reduction of malonate-induced lesion volume” value ([1]; both experiments, DMF 100 mg/kg oral daily)?
A: The value was “at least 55%”.

Q: What about the “Area % of DMF remaining” value [2] of the same compound?
A: Its value is 99.9 area %.

Q: What about the “Stability of DMF in 20% Captisol solution” value ([3]; 0.2 mg/ml) of the same compound?
A: The value was “stable up to 2 days; also recorded: stable up to 2 d; also recorded: chemically and physically stable for 2 days”.

Q: And the DMF area % ([3]; 0.2 mg/ml, 2 d)?
A: Its DMF area % is 99.5 area %.

Q: And the DMF area % ([3]; 0.2 mg/ml, 7 d)?
A: The DMF area % was 97.2 area %.

Q: What about the DMF area % ([3]; 0.2 mg/ml, initial) of the same compound?
A: Its DMF area % is 99.7 area %.

Q: And the DMF area % ([3]; 4 mg/ml, 7 d)?
A: Its DMF area % is 99.4 area %.

Q: What about the DMF area % ([3]; 4 mg/ml, initial) of the same compound?
A: The DMF area % was 99.7 area %.
